Source: patent US20210023238A1, “TRIPTOLIDE ANTIBODY CONJUGATES” (City of Hope, priority 2019, published 2021)

Legend:
Format in all cases: cell-based
A549 NSCLC cells = assay: CCK-8 cell proliferation / cytotoxicity, A549; conditions: Homo sapiens, A549 (EGFR+++), 72 h
Protocol: (§1) H520, H1299, and A549 cells were plated at a density of 3×10^3 cells/well in 96-well multiplates. […] Then after, 10 ul of CCK-8 solution was added to each well and further developed for 2 h. The absorbance values were detected at a wavelength of 450 nm using a Bio-Rad microplate reader. The cell viability was calculated by the optical density (OD) values of treated groups/OD values of control groups (Vehicle/PBS)×100%.

H1299 NSCLC cells = assay: CCK-8 cell proliferation / cytotoxicity, H1299; conditions: Homo sapiens, NCI-H1299, H1299 (EGFR+++), 72 h
Protocol: as §1

H520 NSCLC cells = assay: CCK-8 cell proliferation / cytotoxicity, H520; conditions: Homo sapiens, NCI-H520, H520 (EGFR+/-), 72 h
Protocol: as §1

CC(C)[C@]12O[C@H]1[C@@H]1O[C@]13[C@]1(O[C@H]1C[C@H]1C4=C(CC[C@@]13C)C(=O)OC4)[C@@H]2O [TRP, Triptolide]
IC50 (A549 NSCLC cells): 25 to 50 nM
IC50 (H1299 NSCLC cells): 6.25 to 12.5 nM
IC50 (H520 NSCLC cells): 3.13 nM
